Converted amounts (≈) assume the structure as drawn. Each block holds one compound with its values, some of them ahead of it.
What was measured:
Assay type in all cases: physicochemical
[1] = Aqueous solubility in different cyclodextrin solutions (excess compound, shaken 24 hours, HPLC); details: aqueous cyclodextrin solution, thermodynamic from solid, room temperature, read-out: Solubility in CD's solution (concentration of compound)
Method: (§1) In order to test the effect of various CDs on the aqueous solubility of compound IVE, 1 mL of each of the following aqueous solutions as described in Table 2 was prepared. […] Excess IVE was present in all samples at all times to obtain solubility. After 24-hours, the samples were centrifuged. […] The size of the compound may allow it to form an inclusion complex, resulting in a higher aqueous solubility.
as §1, with “compound IVP,” for “compound IVE,”, “Table 3” for “Table 2”, “Excess IVP” for “Excess IVE”, “all times.” for “all times to obtain solubility.”
as §1, with “compound IVO,” for “compound IVE,”, “Table 4” for “Table 2”, “Excess IVO” for “Excess IVE”, “all times.” for “all times to obtain solubility.”, “inclusion body” for “inclusion”
as §1, with “compound IVQ,” for “compound IVE,”, “Table 5” for “Table 2”, “Excess IVQ” for “Excess IVE”, “all times.” for “all times to obtain solubility.”, “inclusion body” for “inclusion”

[2] = Solubility of compound IVO in solutions containing L-Arginine; details: thermodynamic from solid
Description: After 24-hours, the samples were centrifuged. […] One possibility is that L-Arginine may help promote the formation of inclusion complex between IVO and MBCD.

[3] = Comparable solubility test for IVO ASD-01 in DI water; details: 1.5 ml DI water
Method: The samples were centrifuged at 3 and 24 hours.

[4] = aqueous with cosolvent or surfactant or cyclodextrin, ACD 40 mg/ml
[5] = aqueous with cosolvent or surfactant or cyclodextrin, HPBCD 100 mg/ml
[6] = aqueous with cosolvent or surfactant or cyclodextrin, HPGCD 100 mg/ml
[7] = aqueous with cosolvent or surfactant or cyclodextrin, MBCD 100 mg/ml
[8] = aqueous with cosolvent or surfactant or cyclodextrin, SBEBCD 100 mg/ml

solubility at 24 h [1, 4]: 53 µg/mL (≈ 129 µM) | solubility at 24 h [1, 5]: 744 µg/mL (≈ 1810 µM) | solubility at 24 h [1, 6]: 59 µg/mL (≈ 144 µM) | solubility at 24 h [1, 7]: 3250 µg/mL (≈ 7920 µM) | solubility at 24 h [1, 8]: 815 µg/mL (≈ 1990 µM) | solubility at 24 h ([1]; water, ACD 0 mg/ml): 23 µg/mL (≈ 56 µM) | solubility at 24 h ([1]; water, HPBCD 0 mg/ml): 23 µg/mL (≈ 56 µM) | solubility at 24 h ([1]; water, HPGCD 0 mg/ml): 23 µg/mL (≈ 56 µM) | solubility at 24 h ([1]; water, MBCD 0 mg/ml): 23 µg/mL (≈ 56 µM) | solubility at 24 h ([1]; water, SBEBCD 0 mg/ml): 23 µg/mL (≈ 56 µM)
SMILES: COc1cccc(COc2ccc(Sc3ccoc3C3NC(=O)NC3=O)cc2)c1 (centres unmarked) [IVE, 5-{3-[4-(3-Methoxybenzyloxy)phenylthio]fur-2-yl}imidazolidine-2,4-dione]

solubility at 24 h ([2]; DI water, water, L-Arginine 0 % w/w in DI water): 1.15 µg/mL (≈ 2.91 µM) | solubility at 24 h ([2]; aqueous L-Arginine solution in DI water, aqueous with cosolvent or surfactant or cyclodextrin, L-Arginine 0.15 % w/w in DI water): 11.1 µg/mL (≈ 28.1 µM) | solubility at 24 h ([2]; aqueous L-Arginine solution in DI water, aqueous with cosolvent or surfactant or cyclodextrin, L-Arginine 0.31 % w/w in DI water): 15.1 µg/mL (≈ 38.3 µM) | solubility at 24 h ([2]; aqueous L-Arginine solution in DI water, aqueous with cosolvent or surfactant or cyclodextrin, L-Arginine 0.5 % w/w in DI water): 25.3 µg/mL (≈ 64.2 µM) | solubility at 24 h ([2]; aqueous L-Arginine solution in DI water, aqueous with cosolvent or surfactant or cyclodextrin, L-Arginine 0.63 % w/w in DI water): 34.2 µg/mL (≈ 86.7 µM) | solubility at 24 h ([2]; aqueous L-Arginine solution in DI water, aqueous with cosolvent or surfactant or cyclodextrin, L-Arginine 1.25 % w/w in DI water): 46.8 µg/mL (≈ 119 µM) | solubility at 24 h ([2]; aqueous L-Arginine solution in DI water, aqueous with cosolvent or surfactant or cyclodextrin, L-Arginine 2.5 % w/w in DI water): 85.8 µg/mL (≈ 218 µM) | pH at 24 hrs equilibrium ([3]; 24 hrs): 8.09 | solubility at 24 h ([3]; pH 8.09, thermodynamic from solid, room temperature, 24 hrs): 11 µg/mL (≈ 27.9 µM) | solubility at 3 h ([3]; thermodynamic from solid, room temperature, 3 hrs): 2 µg/mL (≈ 5.07 µM) | solubility at 24 h ([1]; aqueous with cosolvent or surfactant or cyclodextrin, ACD 5 mg/ml): 37 µg/mL (≈ 93.8 µM) | solubility at 24 h ([1]; aqueous with cosolvent or surfactant or cyclodextrin, ACD 10 mg/ml): 30 µg/mL (≈ 76.1 µM) | solubility at 24 h ([1]; aqueous with cosolvent or surfactant or cyclodextrin, ACD 15 mg/ml): 26 µg/mL (≈ 65.9 µM) | solubility at 24 h ([1]; aqueous with cosolvent or surfactant or cyclodextrin, ACD 20 mg/ml): 13 µg/mL (≈ 33 µM) | solubility at 24 h ([1]; aqueous with cosolvent or surfactant or cyclodextrin, ACD 30 mg/ml): 10 µg/mL (≈ 25.4 µM) | solubility at 24 h [1, 4]: 17 µg/mL (≈ 43.1 µM) | solubility at 24 h ([1]; aqueous with cosolvent or surfactant or cyclodextrin, HPBCD 25 mg/ml): 37 µg/mL (≈ 93.8 µM) | solubility at 24 h ([1]; aqueous with cosolvent or surfactant or cyclodextrin, HPBCD 50 mg/ml): 83 µg/mL (≈ 210 µM) | solubility at 24 h ([1]; aqueous with cosolvent or surfactant or cyclodextrin, HPBCD 75 mg/ml): 108 µg/mL (≈ 274 µM) | solubility at 24 h [1, 5]: 184 µg/mL (≈ 466 µM) | solubility at 24 h ([1]; aqueous with cosolvent or surfactant or cyclodextrin, HPBCD 150 mg/ml): 312 µg/mL (≈ 791 µM) | solubility at 24 h ([1]; aqueous with cosolvent or surfactant or cyclodextrin, HPBCD 200 mg/ml): 467 µg/mL (≈ 1180 µM) | solubility at 24 h ([1]; aqueous with cosolvent or surfactant or cyclodextrin, HPGCD 25 mg/ml): 9 µg/mL (≈ 22.8 µM) | solubility at 24 h ([1]; aqueous with cosolvent or surfactant or cyclodextrin, HPGCD 50 mg/ml): 16 µg/mL (≈ 40.6 µM) | solubility at 24 h ([1]; aqueous with cosolvent or surfactant or cyclodextrin, HPGCD 75 mg/ml): 6 µg/mL (≈ 15.2 µM) | solubility at 24 h [1, 6]: 2 µg/mL (≈ 5.07 µM) | solubility at 24 h ([1]; aqueous with cosolvent or surfactant or cyclodextrin, HPGCD 150 mg/ml): 4 µg/mL (≈ 10.1 µM) | solubility at 24 h ([1]; aqueous with cosolvent or surfactant or cyclodextrin, HPGCD 200 mg/ml): 3 µg/mL (≈ 7.61 µM) | solubility at 24 h ([1]; aqueous with cosolvent or surfactant or cyclodextrin, MBCD 25 mg/ml): 244 µg/mL (≈ 619 µM) | solubility at 24 h ([1]; aqueous with cosolvent or surfactant or cyclodextrin, MBCD 50 mg/ml): 477 µg/mL (≈ 1210 µM) | solubility at 24 h ([1]; aqueous with cosolvent or surfactant or cyclodextrin, MBCD 75 mg/ml): 673 µg/mL (≈ 1710 µM) | solubility at 24 h [1, 7]: 1070 µg/mL (≈ 2700 µM) | solubility at 24 h ([1]; aqueous with cosolvent or surfactant or cyclodextrin, MBCD 150 mg/ml): 1700 µg/mL (≈ 4300 µM) | solubility at 24 h ([1]; aqueous with cosolvent or surfactant or cyclodextrin, MBCD 200 mg/ml): 1780 µg/mL (≈ 4520 µM) | solubility at 24 h ([1]; aqueous with cosolvent or surfactant or cyclodextrin, SBEBCD 25 mg/ml): 94 µg/mL (≈ 238 µM) | solubility at 24 h ([1]; aqueous with cosolvent or surfactant or cyclodextrin, SBEBCD 50 mg/ml): 116 µg/mL (≈ 294 µM) | solubility at 24 h ([1]; aqueous with cosolvent or surfactant or cyclodextrin, SBEBCD 75 mg/ml): 156 µg/mL (≈ 395 µM) | solubility at 24 h [1, 8]: 174 µg/mL (≈ 441 µM) | solubility at 24 h ([1]; aqueous with cosolvent or surfactant or cyclodextrin, SBEBCD 150 mg/ml): 315 µg/mL (≈ 799 µM) | solubility at 24 h ([1]; aqueous with cosolvent or surfactant or cyclodextrin, SBEBCD 200 mg/ml): 761 µg/mL (≈ 1930 µM) | solubility at 24 h ([1]; water, ACD 0 mg/ml): 26 µg/mL (≈ 65.9 µM) | solubility at 24 h ([1]; water, HPBCD 0 mg/ml): 26 µg/mL (≈ 65.9 µM) | solubility at 24 h ([1]; water, HPGCD 0 mg/ml): 26 µg/mL (≈ 65.9 µM) | solubility at 24 h ([1]; water, MBCD 0 mg/ml): 26 µg/mL (≈ 65.9 µM) | solubility at 24 h ([1]; water, SBEBCD 0 mg/ml): 26 µg/mL (≈ 65.9 µM)
SMILES: Cc1cccc(COc2ccc(Sc3ccoc3C3NC(=O)NC3=O)cc2)c1 (centres unmarked) [IVO, 5-{3-[4-(3-Methyl-benzyloxy)phenylthio]fur-2-yl}imidazolidine-2,4-dione]

solubility at 24 h [1, 4]: 15 µg/mL (≈ 38 µM) | solubility at 24 h [1, 5]: 727 µg/mL (≈ 1840 µM) | solubility at 24 h [1, 6]: 1 µg/mL (≈ 2.54 µM) | solubility at 24 h [1, 7]: 6270 µg/mL (≈ 15900 µM) | solubility at 24 h [1, 8]: 805 µg/mL (≈ 2040 µM) | solubility at 24 h ([1]; water, ACD 0 mg/ml): 64 µg/mL (≈ 162 µM) | solubility at 24 h ([1]; water, HPBCD 0 mg/ml): 64 µg/mL (≈ 162 µM) | solubility at 24 h ([1]; water, HPGCD 0 mg/ml): 64 µg/mL (≈ 162 µM) | solubility at 24 h ([1]; water, MBCD 0 mg/ml): 64 µg/mL (≈ 162 µM) | solubility at 24 h ([1]; water, SBEBCD 0 mg/ml): 64 µg/mL (≈ 162 µM)
SMILES: Cc1ccccc1COc1ccc(Sc2ccoc2C2NC(=O)NC2=O)cc1 (centres unmarked) [IVP, 5-{3-[4-(2-Methyl-benzyloxy)phenylthio]fur-2-yl}imidazolidine-2,4-dione]

solubility at 24 h [1, 4]: 111 µg/mL (≈ 248 µM) | solubility at 24 h [1, 5]: 1220 µg/mL (≈ 2710 µM) | solubility at 24 h [1, 7]: 5780 µg/mL (≈ 12900 µM) | solubility at 24 h [1, 8]: 641 µg/mL (≈ 1430 µM) | solubility at 24 h ([1]; water, ACD 0 mg/ml): 138 µg/mL (≈ 308 µM) | solubility at 24 h ([1]; water, HPBCD 0 mg/ml): 138 µg/mL (≈ 308 µM) | solubility at 24 h ([1]; water, HPGCD 0 mg/ml): 138 µg/mL (≈ 308 µM) | solubility at 24 h ([1]; water, MBCD 0 mg/ml): 138 µg/mL (≈ 308 µM) | solubility at 24 h ([1]; water, SBEBCD 0 mg/ml): 138 µg/mL (≈ 308 µM)
SMILES: O=C1NC(=O)C(c2occc2Sc2ccc(OCc3cccc(C(F)(F)F)c3)cc2)N1 (centres unmarked) [IVQ, 5-{3-[4-(3-Trifluoromethyl-benzyloxy)phenylthio]fur-2-yl}imidazolidine-2,4-dione]

Reference: patent publication US11628220B2, “Pharmaceutical composition and methods of uses” (Foresee Pharmaceuticals Co., Ltd., priority 2016, dated 2023)
